In US20250032430A1, “USES OF RHODOQUINONE FOR THE TREATMENT OF DISEASE” (Whitehead Institute for Biomedical Research, priority 2021, published 2025):

Columns and labels:
SDH complex [1] = biological target: T1, SDH complex (Homo sapiens, UniProt O14521+P21912+P31040+Q99643); assay: SDH forward/reverse activity (succinate oxidation, fumarate reduction) by stable isotope tracing in cells; format: cell-based
T1 construct: endogenous in cells; host or cells: 143B cells (A5: live cells; A6: permeabilized mitochondria purified from them)
T1 sequence (P31040 43-664): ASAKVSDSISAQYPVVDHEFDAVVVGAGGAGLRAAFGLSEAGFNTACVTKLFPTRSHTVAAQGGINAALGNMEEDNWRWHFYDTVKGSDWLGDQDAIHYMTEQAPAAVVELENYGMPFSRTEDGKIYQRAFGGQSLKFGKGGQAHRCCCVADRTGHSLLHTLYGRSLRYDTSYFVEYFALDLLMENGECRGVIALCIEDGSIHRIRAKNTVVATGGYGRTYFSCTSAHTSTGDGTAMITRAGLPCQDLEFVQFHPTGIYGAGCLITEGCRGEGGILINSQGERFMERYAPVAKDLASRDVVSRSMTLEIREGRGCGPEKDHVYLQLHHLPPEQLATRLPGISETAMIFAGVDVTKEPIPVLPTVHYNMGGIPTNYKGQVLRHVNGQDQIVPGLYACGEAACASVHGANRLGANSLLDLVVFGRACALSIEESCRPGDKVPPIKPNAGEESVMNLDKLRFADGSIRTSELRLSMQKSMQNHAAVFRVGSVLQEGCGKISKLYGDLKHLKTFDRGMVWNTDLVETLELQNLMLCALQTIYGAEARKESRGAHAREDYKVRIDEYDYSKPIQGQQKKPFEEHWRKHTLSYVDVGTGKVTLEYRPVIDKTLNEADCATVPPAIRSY
T1 sequence (P21912 29-280): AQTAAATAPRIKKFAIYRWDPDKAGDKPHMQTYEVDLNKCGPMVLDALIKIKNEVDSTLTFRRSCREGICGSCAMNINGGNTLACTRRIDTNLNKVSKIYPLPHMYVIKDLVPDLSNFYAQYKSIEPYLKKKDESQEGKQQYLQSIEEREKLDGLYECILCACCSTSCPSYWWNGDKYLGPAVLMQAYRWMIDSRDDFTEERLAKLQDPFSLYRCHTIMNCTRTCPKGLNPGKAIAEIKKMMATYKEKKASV
T1 sequence (Q99643 30-169): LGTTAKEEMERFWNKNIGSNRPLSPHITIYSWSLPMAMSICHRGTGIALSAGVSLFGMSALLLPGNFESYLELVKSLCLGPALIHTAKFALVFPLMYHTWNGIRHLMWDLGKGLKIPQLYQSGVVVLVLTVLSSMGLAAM
T1 sequence (O14521 57-159): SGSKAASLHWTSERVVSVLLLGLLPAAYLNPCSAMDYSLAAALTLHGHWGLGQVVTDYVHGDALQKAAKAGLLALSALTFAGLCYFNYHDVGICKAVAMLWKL
From the text: Fumarate reduction can be monitored in cells by the stable isotope tracing of either ^13C4-aspartate or ^13C5^15N2-glutamine. ^13C4-aspartate contributes to the fumarate pool via oxaloacetate and malate and so should lead to the production of ^13C4-succinate upon fumarate reduction (FIG. 2B). ^13C5^15N2-glutamine contributes to the fumarate pool through the reductive arm of the TCA cycle via glutamate, α-ketoglutarate, isocitrate, citrate, oxaloacetate, and malate. A key distinction between the two labeling approaches is that ^13C5^15N2-glutamine enriches the fumarate pool more upon antimycin treatment due to enhanced reductive carboxylation flux, whereas ^13C4-aspartate labels the fumarate pool to equivalent extents in vehicle and antimycin-treated cells (FIG. 2C). Therefore, with stable isotope tracing of ^13C4-aspartate, the level of ^13C4-succinate is a direct measure of fumarate reduction, whereas the stable isotope tracing of ^13C5^15N2-glutamine requires a ratiometric analysis of labeled succinate to labeled fumarate to normalize for differences in the extent of fumarate labeling.
To test if hypoxia triggers electron leakage onto fumarate or a net-reversal of the SDH complex, the ^13C5^15N2-glutamine tracer was utilized, which enables simultaneous quantification of the forward and reverse activities of SDH through the generation of unique isotopologues upon flux through the oxidative arm (α-ketoglutarate to succinate) compared to the reductive arm (α-ketoglutarate—via citrate—to fumarate) of the TCA cycle (FIG. 2E). In this assay, the forward (succinate oxidation) reaction was defined as the ratio of percent labeled ^13C4-fumarate to its precursor ^13C4-succinate (FIG. 2E) and the reverse (fumarate reduction) as that of percent labeled ^13C3-succinate to its precursor ^13C3-fumarate (FIG. 2E). This type of analysis can be performed when the labeling is in the steady-state, which was determined to be after 4-8 hours of incubation with ^13C5^15N2-glutamine (FIG. S2E-F). This ratiometric analysis of the succinate and fumarate isotopologues eliminates potential biases in the assay, such as higher ^13C3-fumarate labeling in antimycin-treated cells caused increased reductive carboxylation flux (FIG. S2E).
Stable isotope tracing in cells: Cells were seeded 24 hours prior to the experiment in 6-well dishes at 70% density. For stable isotope tracing of glutamine, glutamine-free DMEM (ThermoFisher) was supplemented with 2 mM ^13C5^15N2-glutamine (Sigma), 1 mM pyruvate, 5% FBS, 1% P/S, 0.1 mg/mL uridine. For stable isotope tracing of aspartate, DMEM containing 5% FBS, and 1% penicillin and streptomycin, and 0.1 mg/mL uridine (Sigma) was supplemented with the designated amount of 13C4-aspartate (Sigma) and the pH adjusted to 7.4. Uridine was left out of the media for stable isotope tracing experiments measuring nucleotide biosynthesis. Unless otherwise stated, for all experiments, cells were treated for 8 hours and metabolites were isolated as described below. Relevant compounds were added at the start of the incubation periods.

SDH complex [2] = assay: SDH activity assay in permeabilized purified mitochondria; format: biochemical, human
Procedure: SDH activity was examined in permeabilized purified mitochondria. The rate of succinate oxidation was measured by monitoring fumarate production over time after initiating the reaction with succinate. The rate of fumarate reduction was measured in a separate assay by monitoring the rate of succinate production over time after initiating the reaction with fumarate and NADH. […] Moreover, complex I inhibition by piericidin suppressed the fumarate reduction caused by antimycin treatment (FIG. 2I).
Isolation of Mitochondria for Biochemical Assays: 143B cells were scraped and pelleted at 1000×g for 5 minutes. Cell pellets were washed in 1×PBS and pelleted at 1000×g for 5 minutes. For tissue samples, approximately 100 mg of tissue powder was weighed out. Tissue powder or cells were re-suspended in isolation buffer (200 mM sucrose, 10 mM Tris HCl, 1 mM EGTA/Tris, pH 7.4 (adjusted with 1M HEPES)), transferred into an ice-cold glass homogenizer (VWR), and dounced with 15-30 strokes. Homogenates were transferred into tubes and spun at 600×g for 10 minutes at 4° C. Supernatants were moved to a new tube and centrifugation was repeated. Then, supernatants were moved to a new tube and pelleted at 7,000×g for 10 minutes at 4° C. Pellets were washed in isolation buffer and centrifugation was repeated. Pellets were subsequently stored at −80° C. until use.
SDH Activity Assay: Purified mitochondria were re-suspended in buffer (0.22 M Mannitol, 0.075 M Sucrose, 1 mM EDTA, 10 mM HEPES pH 7.4, and one complete Protease inhibitor tablet (Sigma)) to a concentration of 5 mg/mL and underwent 5 freeze-thaw cycles to permeabilize them. 30 μg mitochondria (6 uL) were diluted 1:10 (in 54 uL) of SDH activity assay buffer (27.5 mM KH2PO4 pH 7.4, 1.1 mM CoQ-10 (Sigma), 3.5 g/L BSA). Reactions were supplemented with DMSO, 1 μM antimycin, or 1 μM piericidin and pre-incubated at 37° C. for 10 minutes. […] Samples were centrifuged at 16,000×g for 10 minutes at 4° C. and supernatants were dried down and analyzed by LC-MS for succinate and fumarate.

mammalian cells = assay: Resistance of cells to hypoxia; format: cell-based
[3] = 13C5 15N2-glutamine tracing, 143B cells

| Substance | fumarate reduction (SDH reverse activity) (SDH complex [1]; [3]) | succinate oxidation (SDH forward activity) (SDH complex [1]; [3]) | conversion of fumarate into succinate (13C4-succinate production, 13C4-aspartate tracing) (SDH complex [1]; WT 143B cells, 500 nM antimycin) | ratio of isotopologues: fumarate reduction over succinate oxidation (SDH complex [1]; antimycin treatment (also hypoxia exposure)) | fumarate reduction and succinate oxidation reactions (SDH complex [1]; cells lacking SDHA or SDHB) | rate of succinate oxidation versus fumarate reduction (vehicle: succinate oxidation higher) (SDH complex [2]; permeabilized purified mitochondria, 1 μM antimycin) | terminal electron acceptor use in the mammalian ETC (SDH complex [1]; rhodoquinone generated by RquA expression in cells) | resistance to hypoxia (mammalian cells) | fumarate reduction (succinate production over time) (SDH complex [2]; purified permeabilized mitochondria from WT and RquA-expressing cells, fumarate and NADH, absence of antimycin) |
| --- | --- | --- | --- | --- | --- | --- | --- | --- | --- |
| antimycin | increased | decreased | robustly stimulated | approximately 4 fold | not altered | the opposite was the case | – | – | – |
| rhodoquinone | – | – | – | – | – | – | promotes the use of fumarate as a terminal electron acceptor | renders mammalian cells resistant to hypoxia | sufficient to drive fumarate reduction |
